Reference: PubChem BioAssay (NCI)
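Following 48 hours of exposure in 96-well plates, responses at five concentrations were used to interpolate endpoints linearly. GI50 is the concentration that inhibits growth by half. TGI is the concentration that stops growth completely.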

Test system: MDA-MB-468 breast
Test: NCI anticancer screen, dose series, 48 h

Structure (SMILES)	GI50	TGI
c1cc(OCCN2CCCC2)ccc1CNc1ccc2nc(CCC3CCCCC3)[nH]c2c1	1.47 µM	3.63 µM
OCc1ccc(-c2nc(-c3ccc4c(c3)OCO4)c(-c3ccccn3)[nH]2)cc1	> 25 µM	> 25 µM
CCCCN(CCCC)P(=O)(Oc1ccccc1)Oc1ccccc1	3.03 µM	11.7 µM
CCOC(=O)c1c(NN2CCN(CC(F)(F)F)CC2)oc(/C=C2\C=Nc3ncccc32)c1O	3.01 µM	12 µM
CCN1/C(=C/C(C)=C/c2sc3ccc4ccccc4c3[n+]2CC)Sc2ccc3ccccc3c21	0.0156 µM	0.156 µM
COc1cc2c(cc1OC)[C@@H]1C(=O)c3ccc4c(c3O[C@@H]1CO2)C[C@H](C(C)C)O4	< 0.0181 µM	0.867 µM
COc1ccc(Sc2[nH]c(C=O)c3ccccc23)cc1	1.42 µM	24.3 µM
CCOc1ccccc1/C=N\N=C(N/N=C/c1ccccc1OCC)N/N=C/c1ccccc1OCC	1.54 µM	7.16 µM
C#CCNC1CCC(c2csc(C#C)n2)=C1C (stereo not given)	3.17 µM	18.8 µM
Cc1ccc(-c2cc(C(=O)Nc3ccc(S(=O)(=O)N4CCCCC4)cc3)[nH]n2)c(O)c1	> 100 µM	> 100 µM
COc1cc(CSc2nc3ccc(Cl)cc3c(=O)n2Cc2ccccc2)cc(OC)c1OC	1.07 µM	4.03 µM
CCc1cc2c(c(OCC(F)(F)F)c(C(=O)NC3CCN(C(=O)CO)CC3)n2C)c(=O)n1CC(=O)c1ccccc1	70.6 µM	> 100 µM
Cc1ncc(C(=O)Nc2ccc(CN3CCN(C)CC3)c(C(F)(F)F)c2)cc1C#Cc1cnc(N)c2ccc(C#N)cc12	0.0613 µM	5.13 µM
NC(=O)c1cn(C2CC(O)C(CO)O2)c2ncnc(N)c12 (stereo not given)	0.486 µM	3.77 µM
COc1ccc(C(=O)/C=C/c2cc(-c3ccc(OC)c(OC)c3)n[nH]2)cc1OC	1.09 µM	2.56 µM
O=C(Nc1ccc(I)cc1F)c1cc(Br)ccc1O	0.401 µM	2.33 µM
CCOC(=O)c1ccc(N2NC(=O)/C(=C/c3ccc([N+](=O)[O-])o3)C2=O)cc1	6.69 µM	14.5 µM
Cc1nnn(C)c1-c1cnc2c3ccc(C(C)(C)O)cc3n([C@H](c3ccccc3)C3CCOCC3)c2c1	< 0.01 µM	8.91 µM
CCCCCCOC(=O)CC1=C(C)/C(=C/c2[nH]c(-c3ccc[nH]3)cc2OC)N=C1C	0.155 µM	1.43 µM
Clc1ccc(-c2cnc3c(-c4ccnc(N5CCNCC5)c4)cnn3c2)cc1	1.54 µM	2.99 µM
CC(C)[C@@]12C[C@@H](OC(=O)C3CO3)[C@@](C)(O1)[C@@H]1CC[C@@H](C)[C@H]1[C@@H]2OC(=O)/C=C/c1ccccc1 (stereo not given in full)	16.9 µM	34.8 µM
O=C1OC2(c3ccc(O)cc3Oc3cc(O)ccc32)c2cccc3cccc1c23	16.1 µM	34.3 µM
O=C(COc1ccccc1)NNc1ccccc1	> 300 µM	> 300 µM

Structure (SMILES)	GI50	TGI
COc1cccc(/C=N\NC(=O)c2ccncc2)c1O	2.32 µM	11.2 µM
O=C1CN=C(c2ccc[nH]2)c2cc(Cl)ccc2N1	> 100 µM	> 100 µM
COc1ccc(Nc2ncc(I)c(NCCCNC(=O)C3CCC3)n2)cc1	11.9 µM	38.6 µM
CCn1nc(C2CCN(C(=O)CCO)CC2)nc1-c1cnc(N)c(-c2nnc(C(C)(C)C)o2)n1	1.28 µM	16.1 µM
COc1ccc(C2c3ccc4ccccc4c3Oc3ncn(CCCn4ccnc4)c(=N)c32)cc1OC (stereo not given)	2.12 µM	5.45 µM
Cn1cnc([N+](=O)[O-])c1S(=O)(=O)Oc1ccc(Cl)cc1	1.74 µM	3.7 µM
COc1ccc(C)c2sc(N(Cc3cccnc3)C(=O)c3ccc(C#N)cc3)nc12	35 µM	> 100 µM
CC(C)(C)c1cc(C[P+](c2ccccc2)(c2ccccc2)c2ccccc2)cc(C(C)(C)C)c1O	0.216 µM	0.771 µM
Clc1cc(Br)ccc1-c1ccc(CNCC2CCNCC2)o1	1.71 µM	3.41 µM
COC(=O)CCc1n(Cc2ccc3ccccc3c2)c2ccccc2[n+]1Cc1ccc2ccccc2c1	0.196 µM	1.13 µM
CCCCCN(CCCCC)CCC[C@@H](C)[C@H]1CC[C@H]2[C@@H]3[C@H](OCCCN)C[C@@H]4C[C@H](OCCCN)CC[C@]4(C)[C@H]3C[C@H](OCCCN)[C@]12C	13 µM	29.8 µM
COc1cc(OC)c(C(=O)/C=C/c2ccc(C#N)cc2)c(OC)c1	1.17 µM	3.48 µM
COC(=O)[C@H](Cc1cn(C)cn1)NC(=O)[C@H](CC(C)C)NC(=O)Nc1cc(C(F)(F)F)cc(C(F)(F)F)c1	3.71 µM	> 10 µM
COc1cccc2c1C(=O)c1c(O)c3c(c(O)c1C2=O)C[C@](O)(C(=O)CO)C[C@H]3O[C@@H]1C[C@@H](NC(=O)CCCN(C)C2(c3ccc(F)cc3)CC3CCC2C3)[C@H](O)[C@@H](C)O1 (stereo not given in full)	0.879 µM	1.73 µM
CC(C)CCN(CCC(C)C)CC(=O)Nc1ccc(S(=O)(=O)c2ccc(NC(=O)CN(CCC(C)C)CCC(C)C)cc2)cc1	2.39 µM	7.52 µM
Cc1[nH]c(C(=O)Nc2ccc(C(=O)NCCN)cc2OC(C)C)c(Cl)c1Cl	1.91 µM	3.67 µM
CCCN(CCC)c1ccc(/C=N/NC(=O)c2cccnc2)c(C)c1	2.95 µM	15.1 µM
CCCCCCCCCCCCCCCCn1cc[n+](C)c1	0.092 µM	0.431 µM
COC(=O)c1c2c(c(C)[n+]([O-])c1C)C(=O)C(NCc1ccccc1)=CC2=O	1.3 µM	3.15 µM
Cc1cccc2c(=O)c3c(sc12)c(NCCCNCCO)nc1ccccc13	1.47 µM	3.04 µM
Cc1[nH]c2ccccc2c1CO	19.4 µM	41.4 µM
CCCCCSc1ccc2nc(NC(=O)OCC)sc2c1	0.564 µM	14.8 µM
